From ChEMBL document CHEMBL1146991, “The synthesis of highly potent, selective, and water-soluble agonists at the human adenosine A3 receptor” (Bioorg Med Chem Lett, 2006) come the findings set out here.

Series [1] concerns the target T1, Adenosine receptor A3 (Homo sapiens, UniProt P0DMS8).
T1 sequence (P0DMS8 whole entry): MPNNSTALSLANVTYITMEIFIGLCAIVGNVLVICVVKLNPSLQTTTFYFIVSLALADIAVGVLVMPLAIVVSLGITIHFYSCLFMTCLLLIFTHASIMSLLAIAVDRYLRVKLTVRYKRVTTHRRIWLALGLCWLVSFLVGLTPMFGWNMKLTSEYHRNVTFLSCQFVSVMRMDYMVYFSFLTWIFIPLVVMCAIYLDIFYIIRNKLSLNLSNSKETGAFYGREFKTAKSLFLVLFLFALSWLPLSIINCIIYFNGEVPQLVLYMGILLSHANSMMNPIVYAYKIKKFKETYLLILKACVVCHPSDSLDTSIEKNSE
The experiment in a line: Binding affinity to human adenosine A3 receptor.

Series [2] deals with Adenosine receptors; A1 & A3 (Homo sapiens) (UniProt P30542+P0DMS8). The experiment in a line: Selectivity for human adenosine A3 receptor over human adenosine A1 receptor. It is filed as protein assay.
The target in series [3] is Adenosine receptor A2a (Homo sapiens) (UniProt P29274). The series can be described thus: Increase of cAMP production in HEK293 cell expressing human adenosine A2A receptor at 3 uM. It is filed as functional, cell-based.
The target in series [4] is T2, Adenosine receptor A2b (Homo sapiens) (UniProt P29275).
T2 sequence (whole entry): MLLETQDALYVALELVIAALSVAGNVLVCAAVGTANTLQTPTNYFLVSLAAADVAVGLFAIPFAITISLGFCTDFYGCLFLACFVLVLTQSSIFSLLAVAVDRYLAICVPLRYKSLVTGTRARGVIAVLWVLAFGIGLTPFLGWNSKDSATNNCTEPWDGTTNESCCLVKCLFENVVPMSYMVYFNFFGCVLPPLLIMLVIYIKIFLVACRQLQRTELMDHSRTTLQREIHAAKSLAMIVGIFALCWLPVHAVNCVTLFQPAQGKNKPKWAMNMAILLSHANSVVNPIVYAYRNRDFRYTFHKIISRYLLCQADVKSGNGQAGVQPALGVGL
The series can be described thus: Increase of cAMP production in HEK293 cell expressing human adenosine A2B receptor at 3 uM. It is filed as functional, cell-based.

For series [5], the target named is T1, Adenosine receptor A3. The series can be described thus: Inhibition of isoproterenol-induced increase of cAMP in HEK293 cell expressing human adenosine A3 receptor. Format: functional, cell-based.
The nature of series [6]: Solubility in citrate buffer at pH 4. Format: physicochemical.

Usually pKi stands for the Ki on a negative log10 scale, so that one unit is a factor of ten. Low values mean a large Ki, high ones a small Ki. What is called pEC50 is −log10 of the EC50, conventionally taken in molar units. The solubility is how much of the substance goes into solution per volume. A low value points to a poorly soluble substance.

Structures are written as SMILES. pEC50, pKi: −log10 of the molar value. In brackets after ≈: the same amount, converted by molar mass. Some results are limits rather than exact numbers.

Chain of Adenosine receptors; A1 & A3 (Homo sapiens) (P30542 whole entry, looked up, one chain of several): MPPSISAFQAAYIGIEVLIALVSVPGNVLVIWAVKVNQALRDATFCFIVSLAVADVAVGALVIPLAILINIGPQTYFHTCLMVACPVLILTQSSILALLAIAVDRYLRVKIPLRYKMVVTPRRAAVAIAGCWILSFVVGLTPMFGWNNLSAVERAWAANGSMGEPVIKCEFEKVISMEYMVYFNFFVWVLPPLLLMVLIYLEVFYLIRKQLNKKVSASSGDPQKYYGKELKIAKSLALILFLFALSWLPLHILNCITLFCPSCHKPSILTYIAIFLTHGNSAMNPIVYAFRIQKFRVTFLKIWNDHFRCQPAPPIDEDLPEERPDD
Chain of Adenosine receptor A2a (Homo sapiens) (P29274 whole entry): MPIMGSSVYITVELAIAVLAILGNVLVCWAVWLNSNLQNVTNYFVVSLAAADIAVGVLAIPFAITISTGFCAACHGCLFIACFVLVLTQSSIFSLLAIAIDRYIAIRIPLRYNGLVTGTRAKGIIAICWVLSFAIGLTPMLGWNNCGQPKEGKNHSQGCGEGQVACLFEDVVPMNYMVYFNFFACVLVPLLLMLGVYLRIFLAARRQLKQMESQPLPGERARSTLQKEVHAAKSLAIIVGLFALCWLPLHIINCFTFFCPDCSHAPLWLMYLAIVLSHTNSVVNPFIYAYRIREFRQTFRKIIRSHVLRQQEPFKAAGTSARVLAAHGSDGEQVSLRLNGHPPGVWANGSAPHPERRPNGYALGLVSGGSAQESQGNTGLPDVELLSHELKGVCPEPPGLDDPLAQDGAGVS

`CNC(=O)[C@H]1O[C@@H](n2cnc3c(NC)ncnc32)[C@H](O)[C@@H]1NS(C)(=O)=O` had a pKi on Adenosine receptor A3 [1] of less than 5.52.
On Adenosine receptor A3 [1], `CNC(=O)[C@H]1O[C@@H](n2cnc3c(NC)ncnc32)C[C@@H]1O` had a pKi of 7.06. Further, in series [2], the Selectivity ratio turned out to be 12.6.
For `CNC(=O)[C@H]1O[C@@H](n2cnc3c(NCc4cc(Cl)ccc4OCC(=O)N4CCC(N(C)C)CC4)ncnc32)[C@H](O)[C@@H]1N` the same measures were 8.04 and 456.
For `CNC(=O)[C@H]1O[C@@H](n2cnc3c(NC)ncnc32)[C@H](O)[C@@H]1NC(C)=O`, the negative logarithm of the Ki (pKi) at Adenosine receptor A3 [1] was less than 5.52.
Compound `CNC(=O)[C@H]1O[C@@H](n2cnc3c(NCc4cc(Cl)cc(Cl)c4)ncnc32)[C@H](O)[C@@H]1N` showed a pKi on Adenosine receptor A3 [1] of 7.60. In addition, the Selectivity ratio in series [2] amounted to 148.
For `CNC(=O)[C@H]1O[C@@H](n2cnc3c(NCc4cc(OC)ccc4OC)ncnc32)[C@H](O)[C@@H]1O` the same measures were 8.41 and 45.
For `CNC(=O)[C@H]1O[C@@H](n2cnc3c(NCc4cc(Cl)ccc4OCC(=O)N4CCOCC4)ncnc32)[C@H](O)[C@@H]1N` the same measures were 7.70 and 700.
In turn, `CNC(=O)[C@@H]1C[C@@H](O)[C@H](n2cnc3c(NC)ncnc32)O1` had a pKi on Adenosine receptor A3 [1] of 7.23. For the same compound, the Selectivity ratio in series [2] was 6.
With `CNC(=O)[C@H]1O[C@@H](n2cnc3c(NC)ncnc32)[C@H](O)[C@@H]1N`, the Selectivity ratio in series [2] was 194.
The compound `CNC(=O)[C@H]1O[C@@H](n2cnc3c(NCc4cc(Cl)ccc4OC)ncnc32)[C@H](O)[C@@H]1N` showed a pKi at Adenosine receptor A3 [1] of 7.82. Further, the Selectivity ratio in series [2] amounted to 317.
With `CNC(=O)[C@H]1O[C@@H](n2cnc3c(NCc4cc(Cl)ccc4OCc4ccccc4)ncnc32)[C@H](O)[C@@H]1N`, the pKi on Adenosine receptor A3 [1] was 7.80. Further, the Selectivity ratio in series [2] was 691.
On Adenosine receptor A3 [1], `CNC(=O)[C@H]1O[C@@H](n2cnc3c(NCc4cc(Cl)ccc4OCC(=O)O)ncnc32)[C@H](O)[C@@H]1N` had a pKi of 6.89. Besides, the Selectivity ratio in series [2] came to 222.
On Adenosine receptor A3 [1], `CNC(=O)[C@H]1O[C@@H](n2cnc3c(NCc4cc(Cl)ccc4OCC(N)=O)ncnc32)[C@H](O)[C@@H]1N` had a pKi of 8.17. Further, in series [2], the Selectivity ratio was found to be 526.
On Adenosine receptor A3 [1], `CCNC(=O)N[C@H]1[C@@H](O)[C@H](n2cnc3c(NC)ncnc32)O[C@@H]1C(=O)NC` showed a pKi of less than 5.52.
`CNC(=O)[C@H]1O[C@@H](n2cnc3c(NCc4cc(Cl)ccc4OCC(=O)N4CCCCC4)ncnc32)[C@H](O)[C@@H]1N`: the pKi at Adenosine receptor A3 [1] was 7.74. For the same compound, the Selectivity ratio in series [2] came to 720.
With `CNC(=O)[C@H]1O[C@@H](n2cnc3c(NC)ncnc32)[C@H](O)[C@@H]1O`, in series [2], the Selectivity ratio is 13.
In turn, `CNC(=O)[C@H]1O[C@@H](n2cnc3c(NCc4cc(OC)ccc4OC)ncnc32)[C@H](O)[C@@H]1N` showed a pKi at Adenosine receptor A3 [1] of 6.80. Further, the Selectivity ratio in series [2] was found to be 294.
Take `CNC(=O)[C@H]1O[C@@H](n2cnc3c(NCc4cc(Cl)cc(Cl)c4)ncnc32)[C@H](O)[C@@H]1O`: at Adenosine receptor A3 [1], the pKi is 8.60. In addition, the Selectivity ratio in series [2] was determined as 9.4.
For the compound `CNC(=O)[C@H]1O[C@@H](n2cnc3c(NCc4cc(Cl)ccc4OCC(=O)N4CCNCC4)ncnc32)[C@H](O)[C@@H]1N`, the pKi at Adenosine receptor A3 [1] was 8.03. Further, the Selectivity ratio in series [2] turned out to be 445. Moreover, the Activity came out at 16% in series [3] and 1% in series [4]. At Adenosine receptor A3 [5], the pEC50 is 8.09. Further, the concentration in solution in series [6] (solubility) came to 50 mg/mL (≈ 89.3 mM).
